Source: the kinase profiling compilation of Christmann-Franck et al. (2016)

What was measured:
Test in all cases: radiometric filter-binding kinase assay
CHEK2 (human) = CHEK2 (human) (UniProt O96017)
PAK4 (human) = PAK4 (human) (UniProt O96013)
SYK (human) = SYK (human) (UniProt P43405)
PRKACA (human) = PRKACA (human) (UniProt P17612)
MARK2 (human) = MARK2 (human) (UniProt Q7KZI7)
MAPK12 (human) = MAPK12 (human) (UniProt P53778)
CaMK1 (human) = CaMK1 (human) (UniProt Q14012)
IKBKE (human) = IKBKE (human) (UniProt Q14164)
PRKAA1 or PRKAA2 (rat) = settings: accession and sequence are those of the human protein
NUAK1 (human) = NUAK1 (human) (UniProt O60285)
MAPK10 (human) = MAPK10 (human) (UniProt P53779)
HIPK2 (human) = HIPK2 (human) (UniProt Q9H2X6)
[1] = test system: AKT1 (human), P31749 [S473D]
MAP3K11 (human) = MAP3K11 (human) (UniProt Q16584)
DYRK1A (human) = DYRK1A (human) (UniProt Q13627)
PLK1 (human) = PLK1 (human) (UniProt P53350)
MST4 (human) = MST4 (human) (UniProt Q9P289)
MST4 (human), sequence (Q9P289 whole entry, looked up): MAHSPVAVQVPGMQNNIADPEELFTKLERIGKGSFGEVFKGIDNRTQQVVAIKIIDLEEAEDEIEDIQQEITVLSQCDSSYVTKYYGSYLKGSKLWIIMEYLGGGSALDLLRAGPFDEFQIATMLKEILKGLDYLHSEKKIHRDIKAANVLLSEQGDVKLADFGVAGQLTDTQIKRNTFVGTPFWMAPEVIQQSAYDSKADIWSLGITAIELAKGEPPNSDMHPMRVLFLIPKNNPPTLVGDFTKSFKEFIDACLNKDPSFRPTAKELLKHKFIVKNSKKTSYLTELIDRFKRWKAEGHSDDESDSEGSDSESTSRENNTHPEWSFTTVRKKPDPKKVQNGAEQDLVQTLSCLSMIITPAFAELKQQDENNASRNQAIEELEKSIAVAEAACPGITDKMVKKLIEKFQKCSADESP

PAK7 (human) = PAK7 (human) (UniProt Q9P286)
MAPKAPK3 (human) = MAPKAPK3 (human) (UniProt Q16644)
MAPKAPK3 (human), sequence (Q16644 whole entry, looked up): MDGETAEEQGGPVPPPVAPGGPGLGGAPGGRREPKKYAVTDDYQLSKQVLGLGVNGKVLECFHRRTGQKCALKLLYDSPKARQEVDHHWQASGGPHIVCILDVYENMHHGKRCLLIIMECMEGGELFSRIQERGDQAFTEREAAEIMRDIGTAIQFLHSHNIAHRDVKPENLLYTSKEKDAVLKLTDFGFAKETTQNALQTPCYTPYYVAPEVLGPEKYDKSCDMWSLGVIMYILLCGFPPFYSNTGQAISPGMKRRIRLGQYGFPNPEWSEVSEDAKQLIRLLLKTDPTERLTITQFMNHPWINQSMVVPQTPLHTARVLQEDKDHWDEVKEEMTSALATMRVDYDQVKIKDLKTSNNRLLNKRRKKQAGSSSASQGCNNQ

MAPK3 (human) = MAPK3 (human) (UniProt P27361)
BRSK2 (human) = BRSK2 (human) (UniProt Q8IWQ3)
MAPK13 (human) = MAPK13 (human) (UniProt O15264)
MKNK1 (human) = MKNK1 (human) (UniProt Q9BUB5)
ERBB4 (human) = ERBB4 (human) (UniProt Q15303)
[2] = test system: SGK1 (human), O00141 [S422D]
MAPK8 (human) = MAPK8 (human) (UniProt P45983)
MAPK8 (human), sequence (P45983 whole entry, looked up): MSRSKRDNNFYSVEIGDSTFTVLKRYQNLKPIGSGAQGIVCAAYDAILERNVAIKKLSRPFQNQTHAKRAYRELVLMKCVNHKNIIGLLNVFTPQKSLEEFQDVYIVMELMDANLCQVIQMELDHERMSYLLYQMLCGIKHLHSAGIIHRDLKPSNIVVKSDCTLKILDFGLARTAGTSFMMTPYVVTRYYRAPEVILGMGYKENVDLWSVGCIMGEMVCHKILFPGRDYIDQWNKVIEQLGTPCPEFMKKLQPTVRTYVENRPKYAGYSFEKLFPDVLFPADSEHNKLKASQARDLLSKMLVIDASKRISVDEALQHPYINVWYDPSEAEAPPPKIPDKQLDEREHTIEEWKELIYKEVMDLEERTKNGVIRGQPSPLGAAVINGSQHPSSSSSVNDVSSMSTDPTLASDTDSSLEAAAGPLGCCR

DYRK2 (human) = DYRK2 (human) (UniProt Q92630)
AURKA (human) = AURKA (human) (UniProt O14965)
MAPK1 (human) = MAPK1 (human) (UniProt P28482)
MAPK1 (human), sequence (P28482 whole entry, looked up): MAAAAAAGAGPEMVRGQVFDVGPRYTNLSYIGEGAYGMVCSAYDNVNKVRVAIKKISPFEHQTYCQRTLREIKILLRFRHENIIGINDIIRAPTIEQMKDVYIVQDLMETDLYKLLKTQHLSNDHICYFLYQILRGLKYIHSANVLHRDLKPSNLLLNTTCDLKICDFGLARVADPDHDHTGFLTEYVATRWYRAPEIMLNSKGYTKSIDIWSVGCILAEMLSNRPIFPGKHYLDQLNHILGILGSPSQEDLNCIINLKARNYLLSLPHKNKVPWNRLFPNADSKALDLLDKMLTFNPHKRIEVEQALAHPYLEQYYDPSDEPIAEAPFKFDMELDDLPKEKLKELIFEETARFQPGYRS

PRKCA (human) = PRKCA (human) (UniProt P17252)
EPHB3 (human) = EPHB3 (human) (UniProt P54753)
NEK2 (human) = NEK2 (human) (UniProt P51955)
EPHB2 (human) = EPHB2 (human) (UniProt P29323)
EPHB2 (human), sequence (P29323 whole entry, looked up): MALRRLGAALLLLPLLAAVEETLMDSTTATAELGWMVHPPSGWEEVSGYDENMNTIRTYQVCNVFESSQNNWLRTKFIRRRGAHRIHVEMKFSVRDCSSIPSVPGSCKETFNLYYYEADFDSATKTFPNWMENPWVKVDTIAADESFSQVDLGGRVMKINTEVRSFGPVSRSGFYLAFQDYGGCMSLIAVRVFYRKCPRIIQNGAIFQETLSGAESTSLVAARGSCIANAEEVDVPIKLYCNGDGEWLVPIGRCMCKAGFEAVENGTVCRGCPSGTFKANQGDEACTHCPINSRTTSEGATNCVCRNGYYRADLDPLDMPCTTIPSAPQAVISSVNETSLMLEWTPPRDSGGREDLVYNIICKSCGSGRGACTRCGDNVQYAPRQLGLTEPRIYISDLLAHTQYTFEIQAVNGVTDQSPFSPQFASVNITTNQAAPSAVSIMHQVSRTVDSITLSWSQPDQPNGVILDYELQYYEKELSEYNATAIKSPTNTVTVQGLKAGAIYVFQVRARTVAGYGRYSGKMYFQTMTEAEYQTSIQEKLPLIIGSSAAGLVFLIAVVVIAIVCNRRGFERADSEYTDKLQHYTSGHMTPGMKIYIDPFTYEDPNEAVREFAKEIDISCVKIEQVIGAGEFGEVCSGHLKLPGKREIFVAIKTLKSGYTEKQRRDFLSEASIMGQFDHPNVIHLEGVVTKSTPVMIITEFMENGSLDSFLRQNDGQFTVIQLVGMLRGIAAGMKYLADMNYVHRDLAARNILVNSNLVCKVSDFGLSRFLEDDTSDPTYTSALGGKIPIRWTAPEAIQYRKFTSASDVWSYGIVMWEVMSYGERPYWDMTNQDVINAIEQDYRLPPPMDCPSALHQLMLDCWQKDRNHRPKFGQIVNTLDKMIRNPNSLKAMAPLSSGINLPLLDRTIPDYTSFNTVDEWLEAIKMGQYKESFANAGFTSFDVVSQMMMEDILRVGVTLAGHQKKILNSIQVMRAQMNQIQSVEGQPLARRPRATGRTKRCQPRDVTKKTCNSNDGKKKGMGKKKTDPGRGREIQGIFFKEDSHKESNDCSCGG

MAP2K6 (human) = MAP2K6 (human) (UniProt P52564)
MAP2K6 (human), sequence (P52564 whole entry, looked up): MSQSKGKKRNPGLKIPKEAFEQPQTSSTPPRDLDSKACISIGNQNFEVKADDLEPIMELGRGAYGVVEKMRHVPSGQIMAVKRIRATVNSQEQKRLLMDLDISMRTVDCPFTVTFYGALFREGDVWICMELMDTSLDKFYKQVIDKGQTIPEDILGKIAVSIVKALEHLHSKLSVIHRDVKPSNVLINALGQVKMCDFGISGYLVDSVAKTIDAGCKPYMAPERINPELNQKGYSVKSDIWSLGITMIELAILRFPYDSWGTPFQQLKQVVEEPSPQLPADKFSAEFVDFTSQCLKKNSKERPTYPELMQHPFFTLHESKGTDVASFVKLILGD

RPS6KA1 KD1 KD2 (human) = RPS6KA1 KD1 KD2 (human) (UniProt Q15418)
RPS6KA1 KD1 KD2 (human), sequence (Q15418 whole entry, looked up): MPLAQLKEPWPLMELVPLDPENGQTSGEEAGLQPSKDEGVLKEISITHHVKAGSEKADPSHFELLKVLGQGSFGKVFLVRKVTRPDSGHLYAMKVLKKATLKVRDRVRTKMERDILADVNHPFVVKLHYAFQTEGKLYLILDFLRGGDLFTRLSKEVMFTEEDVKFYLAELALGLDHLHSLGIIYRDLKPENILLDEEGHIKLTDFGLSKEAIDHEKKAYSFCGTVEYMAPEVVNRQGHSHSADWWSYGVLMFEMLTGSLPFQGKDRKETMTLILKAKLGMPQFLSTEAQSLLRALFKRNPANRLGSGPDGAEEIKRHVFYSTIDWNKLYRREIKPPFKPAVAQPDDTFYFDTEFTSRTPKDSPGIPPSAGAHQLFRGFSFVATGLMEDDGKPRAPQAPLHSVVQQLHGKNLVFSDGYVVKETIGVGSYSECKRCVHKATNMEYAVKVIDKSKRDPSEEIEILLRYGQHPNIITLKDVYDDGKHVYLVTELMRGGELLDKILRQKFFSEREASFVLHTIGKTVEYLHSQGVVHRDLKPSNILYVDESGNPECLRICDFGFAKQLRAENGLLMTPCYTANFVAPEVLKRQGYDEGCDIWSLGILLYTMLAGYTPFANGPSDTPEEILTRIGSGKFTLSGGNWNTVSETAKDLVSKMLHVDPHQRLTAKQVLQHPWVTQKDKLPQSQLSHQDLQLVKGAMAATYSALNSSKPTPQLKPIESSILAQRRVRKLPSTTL

CHEK2 (human), sequence (O96017 whole entry, looked up): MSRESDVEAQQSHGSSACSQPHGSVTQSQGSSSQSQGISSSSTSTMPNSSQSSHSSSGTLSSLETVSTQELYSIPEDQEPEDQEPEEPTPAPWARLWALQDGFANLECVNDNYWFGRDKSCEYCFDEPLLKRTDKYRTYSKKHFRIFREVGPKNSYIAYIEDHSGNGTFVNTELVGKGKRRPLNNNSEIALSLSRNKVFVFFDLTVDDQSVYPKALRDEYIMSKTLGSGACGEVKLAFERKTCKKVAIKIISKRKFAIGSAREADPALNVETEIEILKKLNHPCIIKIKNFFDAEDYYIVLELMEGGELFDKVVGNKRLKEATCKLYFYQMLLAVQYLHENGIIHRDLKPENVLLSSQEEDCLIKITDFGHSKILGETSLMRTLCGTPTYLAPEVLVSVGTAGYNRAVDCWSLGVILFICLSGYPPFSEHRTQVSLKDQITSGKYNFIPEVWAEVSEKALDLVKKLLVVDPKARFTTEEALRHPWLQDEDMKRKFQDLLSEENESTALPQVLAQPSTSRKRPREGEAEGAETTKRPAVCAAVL

N#Cc1c(O)c2c(-c3ccc(-c4ccccc4O)cc3)csc2[nH]c1=O
residual activity (CHEK2 (human); compound 10.0 µM): 79%
residual activity (CHEK2 (human); compound 50.0 µM): 52%
residual activity (CHEK2 (human); compound 100.0 µM): 33%
residual activity (PAK4 (human); compound 10.0 µM): 52%
residual activity (PAK4 (human); compound 50.0 µM): 38%
residual activity (PAK4 (human); compound 100.0 µM): 41%
residual activity (SYK (human); compound 10.0 µM): 106%
residual activity (SYK (human); compound 50.0 µM): 36%
residual activity (SYK (human); compound 100.0 µM): 42%
residual activity (PRKACA (human); compound 10.0 µM): 89%
residual activity (PRKACA (human); compound 50.0 µM): 41%
residual activity (PRKACA (human); compound 100.0 µM): 95%
residual activity (MARK2 (human); compound 10.0 µM): 64%
residual activity (MARK2 (human); compound 100.0 µM): 49%
residual activity (MAPK12 (human); compound 10.0 µM): 95%
residual activity (MAPK12 (human); compound 50.0 µM): 80%
residual activity (MAPK12 (human); compound 100.0 µM): 83%
residual activity (CaMK1 (human); compound 10.0 µM): 68%
residual activity (CaMK1 (human); compound 50.0 µM): 45%
residual activity (CaMK1 (human); compound 100.0 µM): 7%
residual activity (IKBKE (human); compound 10.0 µM): 69%
residual activity (IKBKE (human); compound 50.0 µM): 47%
residual activity (IKBKE (human); compound 100.0 µM): 12%
residual activity (PRKAA1 or PRKAA2 (rat); compound 10.0 µM): 135%
residual activity (PRKAA1 or PRKAA2 (rat); compound 50.0 µM): 67%
residual activity (PRKAA1 or PRKAA2 (rat); compound 100.0 µM): 62%
residual activity (NUAK1 (human); compound 10.0 µM): 61%
residual activity (NUAK1 (human); compound 100.0 µM): 10%
residual activity (MAPK10 (human); compound 10.0 µM): 75%
residual activity (MAPK10 (human); compound 50.0 µM): 70%
residual activity (MAPK10 (human); compound 100.0 µM): 62%
residual activity (HIPK2 (human); compound 10.0 µM): 99%
residual activity (HIPK2 (human); compound 50.0 µM): 58%
residual activity (HIPK2 (human); compound 100.0 µM): 19%
residual activity ([1]; compound 10.0 µM): 94%
residual activity ([1]; compound 50.0 µM): 62%
residual activity ([1]; compound 100.0 µM): 78%
residual activity (MAP3K11 (human); compound 10.0 µM): 43%
residual activity (MAP3K11 (human); compound 100.0 µM): 4%
residual activity (DYRK1A (human); compound 10.0 µM): 75%
residual activity (DYRK1A (human); compound 50.0 µM): 60%
residual activity (DYRK1A (human); compound 100.0 µM): 26%
residual activity (PLK1 (human); compound 10.0 µM): 88%
residual activity (PLK1 (human); compound 50.0 µM): 28%
residual activity (PLK1 (human); compound 100.0 µM): 25%
residual activity (MST4 (human); compound 10.0 µM): 74%
residual activity (MST4 (human); compound 50.0 µM): 57%
residual activity (MST4 (human); compound 100.0 µM): 14%
residual activity (PAK7 (human); compound 10.0 µM): 58%
residual activity (PAK7 (human); compound 50.0 µM): 50%
residual activity (PAK7 (human); compound 100.0 µM): 39%
residual activity (MAPKAPK3 (human); compound 10.0 µM): 57%
residual activity (MAPKAPK3 (human); compound 50.0 µM): 48%
residual activity (MAPKAPK3 (human); compound 100.0 µM): 8%
residual activity (MAPK3 (human); compound 10.0 µM): 83%
residual activity (MAPK3 (human); compound 50.0 µM): 102%
residual activity (MAPK3 (human); compound 100.0 µM): 63%
residual activity (BRSK2 (human); compound 10.0 µM): 64%
residual activity (BRSK2 (human); compound 50.0 µM): 63%
residual activity (BRSK2 (human); compound 100.0 µM): 28%
residual activity (MAPK13 (human); compound 10.0 µM): 107%
residual activity (MAPK13 (human); compound 50.0 µM): 116%
residual activity (MAPK13 (human); compound 100.0 µM): 124%
residual activity (MKNK1 (human); compound 10.0 µM): 104%
residual activity (MKNK1 (human); compound 50.0 µM): 66%
residual activity (MKNK1 (human); compound 100.0 µM): 93%
residual activity (ERBB4 (human); compound 10.0 µM): 33%
residual activity (ERBB4 (human); compound 100.0 µM): 8%
residual activity ([2]; compound 10.0 µM): 103%
residual activity ([2]; compound 50.0 µM): 54%
residual activity ([2]; compound 100.0 µM): 48%
residual activity (MAPK8 (human); compound 10.0 µM): 99%
residual activity (MAPK8 (human); compound 50.0 µM): 102%
residual activity (MAPK8 (human); compound 100.0 µM): 93%
residual activity (DYRK2 (human); compound 10.0 µM): 63%
residual activity (DYRK2 (human); compound 50.0 µM): 84%
residual activity (DYRK2 (human); compound 100.0 µM): 33%
residual activity (AURKA (human); compound 10.0 µM): 93%
residual activity (AURKA (human); compound 100.0 µM): 64%
residual activity (MAPK1 (human); compound 10.0 µM): 103%
residual activity (MAPK1 (human); compound 50.0 µM): 74%
residual activity (MAPK1 (human); compound 100.0 µM): 49%
residual activity (PRKCA (human); compound 10.0 µM): 94%
residual activity (PRKCA (human); compound 50.0 µM): 60%
residual activity (PRKCA (human); compound 100.0 µM): 90%
residual activity (EPHB3 (human); compound 10.0 µM): 81%
residual activity (EPHB3 (human); compound 100.0 µM): 55%
residual activity (NEK2 (human); compound 10.0 µM): 73%
residual activity (NEK2 (human); compound 50.0 µM): 52%
residual activity (NEK2 (human); compound 100.0 µM): 19%
residual activity (EPHB2 (human); compound 10.0 µM): 93%
residual activity (EPHB2 (human); compound 100.0 µM): 13%
residual activity (MAP2K6 (human); compound 10.0 µM): 85%
residual activity (MAP2K6 (human); compound 100.0 µM): 84%
residual activity (RPS6KA1 KD1 KD2 (human); compound 10.0 µM): 80%
residual activity (RPS6KA1 KD1 KD2 (human); compound 50.0 µM): 9%
residual activity (RPS6KA1 KD1 KD2 (human); compound 100.0 µM): 12%

C=C1C(=O)OC2C1CC/C(C)=C/CCC1(C)OC21 (stereo not drawn)
residual activity (CHEK2 (human); compound 1.0 µM): 102%
residual activity (CHEK2 (human); compound 5.0 µM): 121%
residual activity (PAK4 (human); compound 1.0 µM): 93%
residual activity (PAK4 (human); compound 5.0 µM): 104%
residual activity (SYK (human); compound 1.0 µM): 102%
residual activity (SYK (human); compound 5.0 µM): 105%
residual activity (PRKACA (human); compound 1.0 µM): 121%
residual activity (PRKACA (human); compound 5.0 µM): 103%
residual activity (MARK2 (human); compound 1.0 µM): 112%
residual activity (MARK2 (human); compound 5.0 µM): 102%
residual activity (MAPK12 (human); compound 1.0 µM): 108%
residual activity (MAPK12 (human); compound 5.0 µM): 115%
residual activity (CaMK1 (human); compound 1.0 µM): 116%
residual activity (CaMK1 (human); compound 5.0 µM): 104%
residual activity (IKBKE (human); compound 1.0 µM): 112%
residual activity (IKBKE (human); compound 5.0 µM): 108%
residual activity (PRKAA1 or PRKAA2 (rat); compound 1.0 µM): 97%
residual activity (PRKAA1 or PRKAA2 (rat); compound 5.0 µM): 98%
residual activity (NUAK1 (human); compound 1.0 µM): 130%
residual activity (NUAK1 (human); compound 5.0 µM): 111%
residual activity (MAPK10 (human); compound 1.0 µM): 115%
residual activity (MAPK10 (human); compound 5.0 µM): 134%
residual activity (HIPK2 (human); compound 1.0 µM): 124%
residual activity (HIPK2 (human); compound 5.0 µM): 113%
residual activity ([1]; compound 1.0 µM): 107%
residual activity ([1]; compound 5.0 µM): 106%
residual activity (MAP3K11 (human); compound 1.0 µM): 104%
residual activity (MAP3K11 (human); compound 5.0 µM): 116%
residual activity (DYRK1A (human); compound 1.0 µM): 120%
residual activity (DYRK1A (human); compound 5.0 µM): 101%
residual activity (PLK1 (human); compound 1.0 µM): 103%
residual activity (PLK1 (human); compound 5.0 µM): 103%
residual activity (MST4 (human); compound 1.0 µM): 88%
residual activity (MST4 (human); compound 5.0 µM): 94%
residual activity (PAK7 (human); compound 1.0 µM): 117%
residual activity (PAK7 (human); compound 5.0 µM): 98%
residual activity (MAPKAPK3 (human); compound 1.0 µM): 135%
residual activity (MAPKAPK3 (human); compound 5.0 µM): 58%
residual activity (MAPK3 (human); compound 1.0 µM): 105%
residual activity (MAPK3 (human); compound 5.0 µM): 103%
residual activity (BRSK2 (human); compound 1.0 µM): 109%
residual activity (MAPK13 (human); compound 1.0 µM): 115%
residual activity (MAPK13 (human); compound 5.0 µM): 113%
residual activity (MKNK1 (human); compound 1.0 µM): 116%
residual activity (MKNK1 (human); compound 5.0 µM): 94%
residual activity (ERBB4 (human); compound 1.0 µM): 98%
residual activity (ERBB4 (human); compound 5.0 µM): 90%
residual activity ([2]; compound 5.0 µM): 115%
residual activity (MAPK8 (human); compound 1.0 µM): 104%
residual activity (MAPK8 (human); compound 5.0 µM): 102%
residual activity (DYRK2 (human); compound 1.0 µM): 113%
residual activity (DYRK2 (human); compound 5.0 µM): 101%
residual activity (AURKA (human); compound 5.0 µM): 115%
residual activity (MAPK1 (human); compound 1.0 µM): 90%
residual activity (MAPK1 (human); compound 5.0 µM): 83%
residual activity (PRKCA (human); compound 1.0 µM): 108%
residual activity (PRKCA (human); compound 5.0 µM): 108%
residual activity (EPHB3 (human); compound 1.0 µM): 95%
residual activity (EPHB3 (human); compound 5.0 µM): 115%
residual activity (NEK2 (human); compound 1.0 µM): 110%
residual activity (EPHB2 (human); compound 1.0 µM): 72%
residual activity (EPHB2 (human); compound 5.0 µM): 78%
residual activity (MAP2K6 (human); compound 1.0 µM): 96%
residual activity (MAP2K6 (human); compound 5.0 µM): 92%
residual activity (RPS6KA1 KD1 KD2 (human); compound 1.0 µM): 110%
residual activity (RPS6KA1 KD1 KD2 (human); compound 5.0 µM): 112%
